We go through five compounds from ChEMBL document CHEMBL5505983, “Design, synthesis, and molecular modeling studies of novel 2-quinolone-1,2,3-triazole-α-aminophosphonates hybrids as dual antiviral and antibacterial agents” (Eur J Med Chem, 2024).

SMILES strings stand for the structures. Converted amounts (≈) assume the structure as drawn.

The test system of one series is Chikungunya virus. Nature of the series: Antiviral activity against CHIKV infected in African green monkey Vero A cells assessed as inhibition of cytopathic effect by microscopy based analysis. In kind it is functional, organism-based. Background: Protection from cytopathic effect is a common read-out in antiviral testing.
Series [1] in a line: Cytotoxicity against African green monkey Vero A cells. Particulars: chlorocebus sabaeus. In kind it is toxicity, cell-based.
Series [2] in a line: Cytotoxicity against human Huh-7 cells. In kind it is toxicity, cell-based.
Series [3] is described as follows: Cytotoxicity against human RD cells. In kind it is toxicity, cell-based.
The subject of series [4] is Staphylococcus aureus. Nature of the series: Antibacterial activity against Staphylococcus aureus CIP 54127 assessed as reduction in bacterial growth by micro-broth dilution method. Format: functional. (In general: Broth dilution looks for growth in wells or tubes with falling amounts of substance.)
Series [5] concerns Enterococcus faecalis. Nature of the series: Ratio of MBC to MIC for Enterococcus faecalis. In kind it is functional.
The test system of series [6] is Staphylococcus aureus. Nature of the series: Bactericidal activity against Staphylococcus aureus CIP 54127. Format: functional.
A further series concerns Zika virus. Nature of the series: Antiviral activity against Zika virus infected in african green monkey Vero E6 cells assessed as inhibition of cytopathic effect by microscopy based analysis. In kind it is functional, organism-based. The following applies: Vero C1008.
The test system of another series is Yellow fever virus. Nature of the series: Antiviral activity against Yellow fever virus infected in human Huh-7 cells assessed as inhibition of cytopathic effect by microscopy based analysis. Format: functional, organism-based.
The subject of series [7] is Human rhinovirus sp. Nature of the series: Antiviral activity against Human rhinovirus B14 infected in human HeLa-RH cells assessed as inhibition of cytopathic effect by microscopy based analysis. In kind it is functional, organism-based.
Series [8] relates to Pseudomonas aeruginosa. Nature of the series: Antibacterial activity against Pseudomonas aeruginosa CIP A22 assessed as reduction in bacterial growth by micro-broth dilution method. Format: functional.
Series [9] in a line: Cytotoxicity against African green monkey Vero E6 cells. Format: toxicity, cell-based, Vero C1008. The following applies: chlorocebus sabaeus.
Series [10] relates to Pseudomonas aeruginosa. Nature of the series: Ratio of MBC to MIC for Pseudomonas aeruginosa CIP A22. In kind it is functional.
For series [11], the system named is Enterococcus faecalis. Nature of the series: Bactericidal activity against Enterococcus faecalis. Format: functional.
For series [12], the system named is Staphylococcus aureus. Nature of the series: Ratio of MBC to MIC for Staphylococcus aureus CIP 54127. In kind it is functional.
Series [13] can be described thus: Cytotoxicity against human HeLa-RH cells. In kind it is toxicity, cell-based.
Series [14] relates to Escherichia coli. Nature of the series: Bactericidal activity against Escherichia coli CIP 53154. In kind it is functional.
The test system of series [15] is Human rhinovirus sp. Nature of the series: Antiviral activity against Human rhinovirus A2 infected in human HeLa-RH cells assessed as inhibition of cytopathic effect by microscopy based analysis. In kind it is functional, organism-based.
Series [16] relates to Enterococcus faecalis. Nature of the series: Antibacterial activity against Enterococcus faecalis assessed as reduction in bacterial growth by micro-broth dilution method. In kind it is functional.
Series [17] relates to Pseudomonas aeruginosa. Nature of the series: Bactericidal activity against Pseudomonas aeruginosa CIP A22. In kind it is functional.
The test system of series [18] is Escherichia coli. Nature of the series: Antibacterial activity against Escherichia coli CIP 53154 assessed as reduction in bacterial growth by micro-broth dilution method. Format: functional.
A further series relates to Enterovirus A71. Nature of the series: Antiviral activity against human EV71 infected in human RD cells assessed as inhibition of cytopathic effect by microscopy based analysis. In kind it is functional, organism-based. Particulars: Enterovirus A.
Series [19] deals with Escherichia coli. Nature of the series: Ratio of MBC to MIC for Escherichia coli CIP 53154. In kind it is functional.

One may read the IC50 as the concentration needed to halve the response being measured. What is called CC50 is the concentration at which the toxic effect on the cells reaches its halfway point. As usually defined, the MIC is the smallest concentration in the dilution series that meets the test's criterion for growth inhibition. By MBC is commonly meant the smallest concentration meeting the test's criterion for killing.

For `CCN(CC)CCCC(C)Nc1ccnc2cc(Cl)ccc12` (stereo not drawn) [CHLOROQUINE], the IC50 in the series on Chikungunya virus is 11 µM. For the same compound, it took 89 µM to reach half-maximal cytotoxicity in series [1] (CC50).

For the compound `CCOP(=O)(OCC)C(Nc1ccccc1Cl)c1cc(Cn2cc(Cn3c(=O)cc(C)c4ccccc43)nn2)ccc1O` (stereo not drawn), the CC50 in series [2] was 30.5 µM; in [3] it was more than 100 µM; in series [9] it was more than 33.3 µM; in series [1] it was 24.3 µM; in series [13], 52.1 µM. Further, the MIC in the series with Staphylococcus aureus [4] turned out to be 500 µM (≈ 311 µg/mL); with Pseudomonas aeruginosa [8] it was 1010 µM (≈ 628 µg/mL); in the series with Enterococcus faecalis [16] it was 60 µM (≈ 37.3 µg/mL); in the series on Escherichia coli [18] it was 260 µM (≈ 162 µg/mL). For the same compound, the Ratio in the series on Enterococcus faecalis [5], in the series with Pseudomonas aeruginosa [10], in the series with Staphylococcus aureus [12] and in the series with Escherichia coli [19] was 1 throughout. Moreover, the MBC came to 500 µM (≈ 311 µg/mL) in the series with Staphylococcus aureus [6], 60 µM (≈ 37.3 µg/mL) against Enterococcus faecalis [11], 260 µM (≈ 162 µg/mL) in the series with Escherichia coli [14] and 1010 µM (≈ 628 µg/mL) in the series with Pseudomonas aeruginosa [17]. The IC50 was more than 100 µM in the series on Zika virus; more than 33.3 µM with Chikungunya virus; more than 100 µM in the series with Yellow fever virus; more than 100 µM in the series with Human rhinovirus sp. [7]; more than 1.23 µM with Human rhinovirus sp. [15]; more than 100 µM with Enterovirus A71.

`CC1(C)S[C@@H]2[C@H](NC(=O)[C@H](N)c3ccccc3)C(=O)N2[C@H]1C(=O)O` [AMPICILLIN]: the MIC in the series with Staphylococcus aureus [4] came out at 270 µM (≈ 94.3 µg/mL); in the series on Pseudomonas aeruginosa [8] it was 530 µM (≈ 185 µg/mL); in the series with Enterococcus faecalis [16] it was 260 µM (≈ 90.8 µg/mL); in the series on Escherichia coli [18] it was 260 µM (≈ 90.8 µg/mL). Besides, the Ratio with Enterococcus faecalis [5] came out at 1; in the series with Pseudomonas aeruginosa [10], 1.96; with Staphylococcus aureus [12] it was 1; in the series with Escherichia coli [19] it was 2.04. Besides, the MBC with Staphylococcus aureus [6] was 270 µM (≈ 94.3 µg/mL); in the series on Enterococcus faecalis [11] it was 260 µM (≈ 90.8 µg/mL); against Escherichia coli [14] it was 530 µM (≈ 185 µg/mL); with Pseudomonas aeruginosa [17], 530 µM (≈ 185 µg/mL).

With `CCOP(=O)(OCC)C(Nc1ccccc1)c1cc(Cn2cc(Cn3c(=O)cc(C)c4cc(F)ccc43)nn2)ccc1O` (stereo not drawn), the CC50 in series [2] is 46.2 µM; in series [3], more than 100 µM; in series [9] it was more than 33.3 µM; in [1], more than 100 µM; in series [13], more than 100 µM. Also, the MIC with Staphylococcus aureus [4] amounted to 510 µM (≈ 309 µg/mL); in the series on Pseudomonas aeruginosa [8], 8260 µM (≈ 5000 µg/mL); with Enterococcus faecalis [16], 2060 µM (≈ 1250 µg/mL); with Escherichia coli [18] it was 1040 µM (≈ 630 µg/mL). The Ratio stood at 1 in the series on Enterococcus faecalis [5], 2 in the series on Pseudomonas aeruginosa [10], 2.04 in the series on Staphylococcus aureus [12] and 1 in the series on Escherichia coli [19]. Further, the MBC against Staphylococcus aureus [6] was found to be 1040 µM (≈ 630 µg/mL); in the series with Enterococcus faecalis [11] it was 2060 µM (≈ 1250 µg/mL); against Escherichia coli [14] it was 1040 µM (≈ 630 µg/mL); with Pseudomonas aeruginosa [17], 8260 µM (≈ 5000 µg/mL). The IC50 in the series with Zika virus is more than 100 µM; in the series with Chikungunya virus, more than 100 µM; in the series with Yellow fever virus it was more than 100 µM; with Human rhinovirus sp. [7], more than 100 µM; in the series with Human rhinovirus sp. [15] it was more than 1.23 µM; in the series on Enterovirus A71 it was more than 100 µM.

In the case of `CCOP(=O)(OCC)C(Nc1ccccc1OC)c1cc(Cn2cc(Cn3c(=O)cc(C)c4cc(F)ccc43)nn2)ccc1O` (stereo not drawn), the CC50 in series [2] was 88 µM; in series [3], more than 100 µM; in series [9], more than 33.3 µM; in series [1], 40.8 µM; in series [13], more than 100 µM. In addition, the MIC was 250 µM (≈ 159 µg/mL) in the series on Staphylococcus aureus [4], 1970 µM (≈ 1250 µg/mL) in the series with Pseudomonas aeruginosa [8], 60 µM (≈ 38.1 µg/mL) in the series on Enterococcus faecalis [16] and 1970 µM (≈ 1250 µg/mL) in the series with Escherichia coli [18]. Also, the Ratio in the series with Enterococcus faecalis [5] stood at 1; with Pseudomonas aeruginosa [10], 1.99; in the series with Staphylococcus aureus [12] it was 1.96; with Escherichia coli [19] it was 1. The MBC turned out to be 490 µM (≈ 311 µg/mL) against Staphylococcus aureus [6], 60 µM (≈ 38.1 µg/mL) against Enterococcus faecalis [11], 1970 µM (≈ 1250 µg/mL) with Escherichia coli [14] and 1970 µM (≈ 1250 µg/mL) with Pseudomonas aeruginosa [17]. Moreover, the IC50 was more than 100 µM in the series with Zika virus; more than 100 µM with Chikungunya virus; more than 100 µM with Yellow fever virus; more than 100 µM in the series with Human rhinovirus sp. [7]; more than 1.23 µM in the series on Human rhinovirus sp. [15]; more than 100 µM with Enterovirus A71.
